The test system of one assay is host-seeking mosquitoes. In words: Study A Guatemala field trial, human-landing catch on treated lower legs. It counts as in vivo, Psorophora varipes, Aedes Ochlerotatus taeniorhynchus. The source says:
Study A—Guatemala Study. The following repellent formulations (% by weight) were used: (1) C15: repellent containing the amounts of ingredients described in Example 1—the PMD obtained from acid modification of Coryinbia citriodora oil, CAS: 42822-86-6, purchased from Chemian Technology Ltd under the trademark Citriodiol®; (2)115: repellent containing the amounts of ingredients described in Example 1—the PMD obtained from Coolact® 38D; (3) T20: containing 20 wt % PMD instead of 15%, obtained from Coolact® 38D; (4) positive control: 15% DEET (N,N-diethyl-meta-toluamide, CAS 134-62-3; Sigma-Aldrich Co.) in ethanol; (5) negative control: mixture of 20% mineral oil and ethanol.
(§1) Study A and B, Both studies were controlled double blind, human-landing catch design. All solutions were placed in unmarked containers labeled by code. On any one night, human volunteers had both lower legs treated with either one of the PMD/LG candidate repellents or a positive or negative control at a rate of 0.002 ml/cm^2 between the ankle and the knee. Volunteers' leg length and circumference were measured to calculate surface area and the correct dose of treatment was measured using a micropipette, and applied using a latex glove to minimize absorption of material onto the hand of the volunteer. During the human-landing catches, the volunteers wore shorts to the knee, work boots, and a loose bug jacket (ProBuy) to ensure that blood-seeking mosquitoes had access only to their lower legs.
(§2) The designated locations within the field sites were 10 m from each other and a minimum of 20 m from alternate sources of kairomones such as houses and livestock. As insect repellents act over a distance of less than a meter, and the maximum distance of host attraction of a single human to mosquitoes is 10 m,^29 the design eliminates any “relativity effect” where insects choose between two hosts simultaneously. Mosquitoes were collected from the lower legs of the volunteers once they had settled—without the need to wait for biting—by using a mouth aspirator, flashlight, and a collection vessel. Collection vessels were changed each hour to provide hourly measures of repellency. Umbrellas were also provided, to protect the volunteers from any rain showers that might wash away their repellent.
(§3) All volunteers were experienced at conducting man-landing catches. A form outlining procedure was given to the volunteers to ensure that they had full understanding of the potential risks of a study of this kind. In addition, each was given chloroquine (Guatemala) or Mefloquine (Peru) prophylaxis in accordance with WHO guidelines.^30 Full ethical clearance was obtained from Universidad del Valle, Guatemala (Study A); and from London School of Hygiene and Tropical Medicine Ethics Board and Instituto Nacional de Salud, Peru (Study B).
Study A. The three repellents and two controls were applied to the five volunteers at 1430 hrs, and man-landing catches were performed at the field site for one hour before and after sunset (1730-1930 hrs), when the evening mosquito biting is at its peak as shown by preliminary man-landing catches. The times chosen allowed an assessment of the protection afforded by the repellent over 5 hours while exposing volunteers to bites for only 2 hours. This helped minimize exposure and risk to the collectors. The study was a balanced 5×5 Latin-square design that required each volunteer to test each treatment five times throughout the study over a period of twenty-five nights. Every evening, each individual was allocated one of five treatments, and sat in one of five allocated positions. Consequently, the volunteers changed position every five days.
Mosquitoes were maintained overnight and killed by cooling prior to identification the following morning. Data were normalized using natural log ([…]) and analyzed with General Linear Model (GLM) using Minitab 11.0 for Windows. […]

Another assay deals with An. darlingi. As to conditions: for 4 hours after application; biting pressure 75 mosquito landings per human-hour; cited from earlier work.
The subject of another assay is All mosquitoes. In words: Study B Peru field trial, human-landing catch, all mosquitoes. Conditions: for % P = percentage protection / AM = arithmetic mean mosquito landings/hour / WM = William's mean mosquito landings/hour: All mosquitoes. It counts as in vivo, mosquitoes (86% Anopheles darlingi).
Text: (§4) Study B—Peru Study. Repellent formulations (% by weight) were used: (1) “PMD+LG” containing about 16% PMD as indicated in Example 1—PMD obtained from Coolact® 38D; (2) positive control: 20% DEET (Sigma Aldridge) in ethanol (Sigma-Aldrich Co.); (3) negative control: 20% mineral oil (ExxonMobil Corporation) in ethanol.
as §1, §2, §3
(§5) Study B. The repellent and two controls were applied at 1600 hrs, and man-landing collections were performed at the field, between 1800 and 2200 hours, as this is the time of peak An. darlingi activity in the area (Chan, A. unpublished data). The times chosen allowed an assessment of the protection afforded by the repellent over to be made of relative protection of the samples for a period of 6 hours while exposing volunteers to bites for only 4 hours. This helped minimize exposure and risk to the collectors. The volunteers took a 15-minute break between 2000 hrs and 2015 hrs. The study was a 3×3 balanced Latin-square design performed using three volunteers over nine nights, with volunteers changing positions every third night. Due to unforeseen circumstances, one of the volunteers was replaced after 4 nights, and this was factored into the statistical analysis.
(§6) Mosquitoes were maintained overnight and killed by cooling prior to identification the following morning. Data were normalized using natural log ([…]) and analyzed with General Linear Model (GLM) using Minitab 11.0 for Windows. Further testing of individual variables was performed using Kruskal Wallis, as data could not be sufficiently normalized to use one-way Analysis of Variance (ANOVA) due to low collection numbers on repellent-treated individuals.

Another assay deals with Anopheles darlingi. In words: Study B Peru field trial, human-landing catch, Anopheles darlingi. It counts as in vivo.
Text: as §4, §1, §2, §3, §5, §6

Where [1] appears, read: Mean of 4 and 5 hours post application.

The text below walks through data of patent US8501205B2, “Insect repellent composition” (priority 2006, dated 2013).

Marks after values point to notes of the source that are not given here.

Consider `CCN(CC)C(=O)c1cccc(C)c1` [15% DEET, N,N-diethyl-meta-toluamide], for which the “% P = percentage protection” value in the assay on host-seeking mosquitoes (4 hours post application) is 94.52%; in the assay on host-seeking mosquitoes (5 hours post application), 87.85%; in the assay on host-seeking mosquitoes (setting [1]) it was 91.42%. Also, the “WM = William's mean mosquito landings/hour” value was 3.63 mosquito landings/hour with host-seeking mosquitoes (4 hours post application), 4.87 mosquito landings/hour with host-seeking mosquitoes (5 hours post application) and 3.60^c mosquito landings/hour in the assay with host-seeking mosquitoes (setting [1]). The “AM = arithmetic mean mosquito landings/hour” value was 6.33 mosquito landings/hour in the assay on host-seeking mosquitoes (4 hours post application, 0.002 ml/cm^2 on lower legs); 12.21 mosquito landings/hour in the assay with host-seeking mosquitoes (5 hours post application); 9.27 mosquito landings/hour in the assay with host-seeking mosquitoes (setting [1]). In the assay on host-seeking mosquitoes (up to five hours after application, biting pressure 108 mosquitoes per man hour), the “protection from host-seeking mosquitoes” value amounted to 91%. The protection in the assay with An. darlingi was 85%.
With `CCN(CC)C(=O)c1cccc(C)c1` [20% DEET, N,N-diethyl-meta-toluamide], in the assay with All mosquitoes (6 hours after application / over the duration of the trial), the average protection amounted to 62%. Further, the “% P = percentage protection” value in the assay on All mosquitoes (3 hours post application) was 65.77%; in the assay with All mosquitoes (4 hours post application) it was 68.12%; in the assay with All mosquitoes (5 hours post application), 63.80%; in the assay on All mosquitoes (6 hours post application), 52.08%; in the assay on All mosquitoes (Mean of 3-6 hours), 63.63%; with Anopheles darlingi (3 hours post application), 56.43%. Further, the “% P = percentage protection” value with Anopheles darlingi (4 hours post application) came to 66.53%; in the assay on Anopheles darlingi (5 hours post application), 62.21%; with Anopheles darlingi (6 hours post application), 51.41%; in the assay on Anopheles darlingi (Mean of 3-6 hours), 61.40%. In addition, the “AM = arithmetic mean mosquito landings/hour” value with All mosquitoes (3 hours post application) stood at 15.22 mosquito landings/hour; in the assay with All mosquitoes (4 hours post application), 19.78 mosquito landings/hour; with All mosquitoes (5 hours post application) it was 13.89 mosquito landings/hour; with All mosquitoes (6 hours post application) it was 18.44 mosquito landings/hour; in the assay with All mosquitoes (Mean of 3-6 hours), 16.83 mosquito landings/hour; in the assay on Anopheles darlingi (3 hours post application), 13.56 mosquito landings/hour. Further, the “AM = arithmetic mean mosquito landings/hour” value with Anopheles darlingi (4 hours post application) was determined as 18.33 mosquito landings/hour; in the assay on Anopheles darlingi (5 hours post application), 12.89 mosquito landings/hour; with Anopheles darlingi (6 hours post application), 17.22 mosquito landings/hour; in the assay on Anopheles darlingi (Mean of 3-6 hours) it was 15.00 mosquito landings/hour. For the same molecule, the “WM = William's mean mosquito landings/hour” value in the assay on All mosquitoes (3 hours post application) is reported as 10.59 mosquito landings/hour; in the assay with All mosquitoes (4 hours post application), 16.12 mosquito landings/hour; in the assay with All mosquitoes (5 hours post application), 11.68 mosquito landings/hour; in the assay on All mosquitoes (6 hours post application), 15.28 mosquito landings/hour; with All mosquitoes (Mean of 3-6 hours) it was 13.30^c mosquito landings/hour; in the assay with Anopheles darlingi (3 hours post application) it was 9.59 mosquito landings/hour. The “WM = William's mean mosquito landings/hour” value with Anopheles darlingi (4 hours post application) is 14.96 mosquito landings/hour; in the assay on Anopheles darlingi (5 hours post application) it was 10.59 mosquito landings/hour; with Anopheles darlingi (6 hours post application), 13.59 mosquito landings/hour; in the assay on Anopheles darlingi (Mean of 3-6 hours) it was 12.07^c mosquito landings/hour.
